Measurements taken from patent publication US11964953B2, “Substituted aminothiazoles as DGKzeta inhibitors for immune activation” (Bayer Aktiengesellschaft, priority 2020, dated 2024).

biological target: human DGKζ (Homo sapiens (Human), UniProt Q13574); assay: Human DGKζ kinase activity inhibition assay (ADP-Glo); format: biochemical; conditions: in vitro human DGKζ kinase activity inhibition assay; read-out: IC50
Method: Human DGKζ Kinase Activity Inhibition Assay. Human diacylglycerol kinase zeta (DGKζ) inhibitory activity of compounds of the present invention was quantified employing the human DGKζ kinase activity assay as described in the following paragraphs. In essence, the enzyme activity was measured by quantification of the adenosine-di-phosphate (ADP) generated as a co-product of the enzyme reaction via the “ADP-Glo™ Kinase Assay” kit from the company Promega. This detection system works as follows: In a first step the adenosine-tri-phosphate (ATP) not consumed in the kinase reaction is quantitatively converted to cyclic adenosine-mono-phosphate (cAMP) employing an adenylate cyclase (“ADP-Glo-reagent”), then the adenylate cyclase is stopped and the ADP generated in the kinase reaction is converted to ATP, which subsequently generates in a luciferase-based reaction a glow-luminescence signal (“Kinase Detection Reagent”). C-terminally FLAG-tagged, recombinant full-length human DGKζ (in house expressed in baculovirus infected insect cells, purified using anti-Flag pulldown and size exclusion chromatography) was used as enzyme. As an alternative, commercially available enzyme by Carnabio can be used. […] Subsequently, 22.55 volumes of a 510 mM solution of octyl-β-D-glucopyranoside (Sigma-Aldrich, Cat. #O8001-10G) in 50 mM MOPS buffer (pH 7.4) were added, and the mixture was sonicated in an ultrasonic bath for 20 s. […] Viewlux™ from Perkin-Elmer). The amount of emitted light was taken as a measure for the amount of ADP generated and thereby for the activity of the DGKζ.

Chain of human DGKζ (Q13574 other isoform, or with tags, fused parts or gaps): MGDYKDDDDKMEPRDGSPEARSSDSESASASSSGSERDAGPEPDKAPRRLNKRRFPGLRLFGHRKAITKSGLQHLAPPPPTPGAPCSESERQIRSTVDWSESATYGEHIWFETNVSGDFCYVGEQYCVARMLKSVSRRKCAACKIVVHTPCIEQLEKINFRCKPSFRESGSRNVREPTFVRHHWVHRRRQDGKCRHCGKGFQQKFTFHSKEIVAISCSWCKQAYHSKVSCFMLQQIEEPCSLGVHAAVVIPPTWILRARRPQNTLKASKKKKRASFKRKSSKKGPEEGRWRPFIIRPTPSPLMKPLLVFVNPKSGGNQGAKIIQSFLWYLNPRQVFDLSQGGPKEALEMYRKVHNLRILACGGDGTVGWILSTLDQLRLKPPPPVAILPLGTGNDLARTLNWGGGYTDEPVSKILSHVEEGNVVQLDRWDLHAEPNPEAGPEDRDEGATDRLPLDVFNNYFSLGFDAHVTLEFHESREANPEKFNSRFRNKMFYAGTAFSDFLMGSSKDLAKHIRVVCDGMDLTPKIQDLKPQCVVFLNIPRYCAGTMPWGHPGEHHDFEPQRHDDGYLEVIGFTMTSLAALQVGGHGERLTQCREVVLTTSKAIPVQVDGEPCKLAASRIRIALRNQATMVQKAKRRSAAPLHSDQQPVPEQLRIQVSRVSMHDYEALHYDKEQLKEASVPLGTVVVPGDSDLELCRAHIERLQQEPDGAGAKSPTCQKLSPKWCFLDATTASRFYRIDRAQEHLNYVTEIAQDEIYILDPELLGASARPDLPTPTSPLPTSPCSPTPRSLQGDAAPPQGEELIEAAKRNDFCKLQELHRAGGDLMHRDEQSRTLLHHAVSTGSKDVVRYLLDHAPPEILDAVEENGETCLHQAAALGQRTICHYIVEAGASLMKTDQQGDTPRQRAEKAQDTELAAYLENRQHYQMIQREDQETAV

Compound	IC50 [nM]
COCCNC(=O)COc1ccc(C(=O)c2sc(N(c3ccc(F)cc3)C(C)C(N)=O)nc2N)cc1 (racemic) [Example 91, rac-2-(N-(4-amino-5-[4-[2-(2-methoxyethylamino)-2-oxo-ethoxy]benzoyl]thiazol-2-yl]-4-fluoro-anilino)propanamide]	701
CC(C(N)=O)N(c1ccc(Cl)c(F)c1)c1nc(N)c(C(=O)c2ccccc2)s1 (racemic) [Example 36, rac-2-(N-(4-amino-5-benzoyl-thiazol-2-yl)-4-chloro-3-fluoro-anilino)propanamide]	22.2
CC(Oc1ccc(C(=O)c2sc(N(c3ccccc3)C(C)C(N)=O)nc2N)cc1)C(N)=O (single isomer, unassigned) [Example 45.2, 2-(N-[4-amino-5-[4-[2-amino-1-methyl-2-oxo-ethoxy]benzoyl]thiazol-2-yl]anilino)propanamide]	8910
CC(C(N)=O)N(c1ccc(F)cc1)c1nc(N)c(C(=O)c2ccc(C(F)(F)F)nc2)s1 (racemic) [Example 29, rac-2-(N-[4-amino-5-[6-(trifluoromethyl)pyridine-3-carbonyl]thiazol-2-yl]-4-fluoro-anilino)propanamide]	58.4
CC(C(N)=O)N(c1ccc(F)cc1)c1nc(N)c(C(=O)c2ccc(F)cc2)s1 (racemic) [Example 64, rac-2-(N-[4-amino-5-(4-fluorobenzoyl)thiazol-2-yl]-4-fluoro-anilino)propanamide]	55.8
COc1ccc(C(=O)c2sc(N(c3ccc(F)c(Cl)c3)C(C)C(N)=O)nc2N)cc1 (single isomer, unassigned) [Example 161.1, 2-(N-[4-amino-5-(4-methoxybenzoyl)thiazol-2-yl]-3-chloro-4-fluoro-anilino)propanamide]	9
CC(C(N)=O)N(c1nc(N)c(C(=O)c2ccccc2)s1)c1ccc(OC(F)(F)F)cc1Cl (racemic) [Example 240, rac-2-[N-(4-amino-5-benzoyl-thiazol-2-yl)-2-chloro-4-(trifluoromethoxy)anilino]propanamide]	1330
CC(C(N)=O)N(c1ccc(Cl)cc1)c1nc(N)c(C(=O)c2ccc(Cl)cc2)s1 (single isomer, unassigned) [Example 41.2, 2-(N-[4-amino-5-(4-chlorobenzoyl)thiazol-2-yl]-4-chloro-anilino)propanamide]	7.73
CC(C(N)=O)N(c1ccc(F)cc1)c1nc(N)c(C(=O)c2ccc(OC(F)(F)F)cc2)s1 (single isomer, unassigned) [Example 40.1, 2-(N-[4-amino-5-[4-(trifluoromethoxy)benzoyl]thiazol-2-yl]-4-fluoro-anilino)propanamide]	792
CC(C(N)=O)N(c1ccc(F)cc1)c1nc(N)c(C(=O)c2ccc(OCC(=O)N(C)CCCN(C)C)cc2)s1 (racemic) [Example 113, rac-2-(N-(4-amino-5-[4-[2-[3-(dimethylamino)propyl-methyl-amino]-2-oxo-ethoxy]benzoyl]thiazol-2-yl]-4-fluoro-anilino)propanamide]	703
CC(C(N)=O)N(c1ccc(F)cc1)c1nc(N)c(C(=O)c2ccc(Oc3ccccc3)cc2)s1 (racemic) [Example 173, rac-2-(N-[4-amino-5-(4-phenoxybenzoyl)thiazol-2-yl]-4-fluoro-anilino)propanamide]	25
CC(C(N)=O)N(c1ccc(Cl)cc1)c1nc(N)c(C(=O)c2ccc(OC(F)F)cc2)s1 (racemic) [Example 47, rac-2-(N-[4-amino-5-[4-(difluoromethoxy)benzoyl]thiazol-2-yl]-4-chloro-anilino)propanamide]	3.77
CC(C(N)=O)N(c1ccc(Cl)c(F)c1)c1nc(N)c(C(=O)c2ccc(C(=O)NCCOc3ccccc3)cc2)s1 (racemic) [Example 268, rac-4-[4-amino-2-(N-(2-amino-1-methyl-2-oxo-ethyl)-4-chloro-3-fluoro-anilino)thiazole-5-carbonyl]-N-(2-phenoxyethyl)benzamide]	3
CC(C(N)=O)N(c1ccc(F)cc1)c1nc(N)c(C(=O)c2ccc(OC(F)F)nc2)s1 (racemic) [Example 162, rac-2-(N-[4-amino-5-[6-(difluoromethoxy)pyridine-3-carbonyl]thiazol-2-yl]-4-fluoro-anilino)propanamide]	22
CC(C(N)=O)N(c1ccc(Cl)c(F)c1)c1nc(N)c(C(=O)c2ccc(OCc3ccccc3)cc2)s1 (single isomer, unassigned) [Example 166.2, 2-(N-[4-amino-5-(4-benzyloxybenzoyl)thiazol-2-yl]-4-chloro-3-fluoro-anilino)propanamide]	129
CC(C(N)=O)N(c1ccc(F)cc1)c1nc(N)c(C(=O)c2ccc(OCC(=O)NCc3nc4ccccc4[nH]3)cc2)s1 (racemic) [Example 98, rac-2-(N-[4-amino-5-[4-[2-(1H-benzimidazol-2-ylmethylamino)-2-oxo-ethoxy]benzoyl]thiazol-2-yl]-4-fluoro-anilino)propanamide]	73.5
CC(C(N)=O)N(c1ccc(F)cc1)c1nc(N)c(C(=O)c2ccc(OCC(=O)N3CCC[C@H]3C(N)=O)cc2)s1 (mixture of isomers) [Example 110, (2S)-1-[2-[4-[4-amino-2-(N-[2-amino-(1RS)-methyl-2-oxo-ethyl]-4-fluoro-anilino)thiazole-5-carbonyl]phenoxy]acetyl]pyrrolidine-2-carboxamide]	366
CC(C(N)=O)N(c1ccc(OCc2ccccc2)cc1)c1nc(N)c(C(=O)c2ccc(OC(F)F)cc2)s1 (racemic) [Example 182, rac-2-(N-[4-amino-5-[4-(difluoromethoxy)benzoyl]thiazol-2-yl]-4-benzyloxy-anilino)propanamide]	91
COCCNC(=O)c1ccc(C(=O)c2sc(N(c3ccc(Cl)c(F)c3)C(C)C(N)=O)nc2N)cc1 (racemic) [Example 272, rac-4-[4-amino-2-(N-(2-amino-1-methyl-2-oxo-ethyl)-4-chloro-3-fluoro-anilino)thiazole-5-carbonyl]-N-(2-methoxyethyl)benzamide]	39
CC(C(N)=O)N(c1ccc(N(C)C)cc1)c1nc(N)c(C(=O)c2ccccc2)s1 (racemic) [Example 2, rac-2-[N-(4-amino-5-benzoyl-thiazol-2-yl)-4-(dimethylamino)anilino]propanamide]	935
CC(C(N)=O)N(c1ccc(F)cc1)c1nc(N)c(C(=O)c2ccc(OCC(=O)NCc3ccccc3F)cc2)s1 (racemic) [Example 96, rac-2-(N-[4-amino-5-[4-[2-[(2-fluorophenyl)methylamino]-2-oxo-ethoxy]benzoyl]thiazol-2-yl]-4-fluoro-anilino)propanamide]	31.4
COc1ccc(C(=O)c2sc(N(c3ccc(Cl)c(F)c3)C(C)C(N)=O)nc2N)cn1 (racemic) [Example 172, rac-2-(N-[4-amino-5-(6-methoxypyridine-3-carbonyl)thiazol-2-yl]-4-chloro-3-fluoro-anilino)propanamide]	46
CC(C(N)=O)N(c1cccnc1)c1nc(N)c(C(=O)c2ccccc2)s1 (single isomer, unassigned) [Example 79.2, 2-[(4-amino-5-benzoyl-thiazol-2-yl)-(3-pyridyl)amino]propanamide]	2390
CC(C(N)=O)N(c1ccc(F)cc1)c1nc(N)c(C(=O)c2ccncc2)s1 (racemic) [Example 7, rac-2-(N-[4-amino-5-(pyridine-4-carbonyl)thiazol-2-yl]-4-fluoro-anilino)propanamide]	705
CC(C(N)=O)N(c1ccc(F)cc1)c1nc(N)c(C(=O)c2ccc(C(=O)NC3CCCCC3)cc2)s1 (racemic) [Example 260, rac-4-[4-amino-2-(N-(2-amino-1-methyl-2-oxo-ethyl)-4-fluoro-anilino)thiazole-5-carbonyl]-N-cyclohexyl-benzamide]	29
CCN(C)C(=O)COc1ccc(C(=O)c2sc(N(c3ccc(F)cc3)C(C)C(N)=O)nc2N)cc1 (racemic) [Example 111, rac-2-(N-[4-amino-5-[4-[2-[ethyl(methyl)amino]-2-oxo-ethoxy]benzoyl]thiazol-2-yl]-4-fluoro-anilino)propanamide]	334
CC(C(N)=O)N(c1ccc(F)nc1)c1nc(N)c(C(=O)c2ccccc2)s1 (racemic) [Example 233, rac-2-[(4-amino-5-benzoyl-thiazol-2-yl)-(6-fluoro-3-pyridyl)amino]propanamide]	267
CC(C(N)=O)N(c1ccc(F)cc1)c1nc(N)c(C(=O)c2ccc(OCC(=O)N3Cc4ccccc4C3)cc2)s1 (racemic) [Example 134, rac-2-(N-[4-amino-5-[4-(2-isoindolin-2-yl-2-oxo-ethoxy)benzoyl]thiazol-2-yl]-4-fluoro-anilino)propanamide]	76.8
COc1ccc(C(=O)c2sc(N(c3ccc(F)c(F)c3)C(C)C(N)=O)nc2N)cc1 (racemic) [Example 51, rac-2-(N-[4-amino-5-(4-methoxybenzoyl)thiazol-2-yl]-3,4-difluoro-anilino)propanamide]	16.6
CC(C(N)=O)N(c1ccc(OC(F)(F)F)c(F)c1)c1nc(N)c(C(=O)c2ccc(OC(F)F)cc2)s1 (racemic) [Example 219, rac-2-[N-[4-amino-5-[4-(difluoromethoxy)benzoyl]thiazol-2-yl]-3-fluoro-4-(trifluoromethoxy)anilino]propanamide]	13
